From patent US9862680B2, “Peripherally substituted monocyclic beta-lactams” (University of Notre Dame du Lac, priority 2016, dated 2018)

Legend:
Format in all cases: cell-based
[1] = system: panel of Gram-positive and Gram-negative bacteria; assay: Kirby-Bauer agar diffusion assays, results in words
Protocol: (§1) Antibacterial activity of the compounds was determined by a modified Kirby-Bauer^27-28 agar-diffusion assay. Overnight cultures of test organisms were grown in LB broth for 18-24h and standard suspensions of […] were prepared in saline solution (0.9% NaCl) according to a 0.5 BaSO4 McFarland Standard. This standardized suspension (0.1 mL) was added to 34 mL of sterile, Mueller Hinton No. 2 agar tempered to 47-50° C. After gentle mixing, the inoculated agar media was poured into a sterile plastic petri dish (145 mm×20 mm) and allowed to solidify near a flame with the lid cracked for 30 min. Wells of 9.0 mm diameter were cut from the petri dish agar and filled with exactly 50 μL of the test sample solution. For studies using mixtures of compounds, both test compounds were diluted to equal concentrations and 50 μL of the mixed compound solution was added to the cut well. The petri dish was incubated at 37° C. for 18-24 h and the inhibition zone diameters were measured (mm) with an electronic caliper after 24-48 h.
(§2) All compound-containing solutions were prepared by first making a 20 mM solution of the compound in DMSO and then diluting that solution 10-fold with MeOH to give the final 2 mM solution used in the assay.
(§3) Plates were incubated after inoculation at 37° C. for 20 hours. Plates were photographed after 1 day. M. vaccae required a longer incubation time, 48 hours, and was photographed after 3 days.

A. Baumannii ATCC 17961 = assay: Agar diffusion assay (modified Kirby-Bauer); details: 50 μL in 9.0 mm well, P unclear, V very unclear zone, * slightly misshapen zone
Protocol: as §1, §2, §3

M. Luteus ATCC 10240 = assay: Agar diffusion assay (modified Kirby-Bauer)
Protocol: as §1, §2, §3

B. Subtilis ATCC 6633 = assay: Agar diffusion assay (modified Kirby-Bauer); details: 50 μL in 9.0 mm well, P unclear, V very unclear zone, * slightly misshapen zone; for Zone of Growth Inhibition: 2 mM solution
Protocol: as §1, §2, §3

M. Vaccae IMET 10670 = assay: Agar diffusion assay (modified Kirby-Bauer); details: 2 mM solution, 50 μL in 9.0 mm well, 48 hours incubation, P unclear, V very unclear zone, * slightly misshapen zone; for zone of inhibition at 2000 µM: Mycolicibacterium vaccae, read-out: Zone of Growth Inhibition
Protocol: as §1, §2, §3

E. Coli DC2 = assay: Agar diffusion assay (modified Kirby-Bauer)
Protocol: as §1, §2, §3

P. Aeruginosa K799/wt = assay: Agar diffusion assay (modified Kirby-Bauer); details: P. Aeruginosa K799/wt (wild type), 2 mM solution, 50 μL in 9.0 mm well, P unclear, V very unclear zone, * slightly misshapen zone
Protocol: as §1, §2, §3

E. Coli DC0 = assay: Agar diffusion assay (modified Kirby-Bauer); details: 2 mM solution, 50 μL in 9.0 mm well, P unclear, V very unclear zone, * slightly misshapen zone; for zone of inhibition at 2000 µM: Escherichia coli, read-out: Zone of Growth Inhibition
Protocol: as §1, §2, §3

B. Dolosa AU 0018 = assay: Agar diffusion assay (modified Kirby-Bauer); details: 2 mM solution, 50 μL in 9.0 mm well, P unclear, V very unclear zone, * slightly misshapen zone; for zone of inhibition at 2000 µM: Burkholderia dolosa, read-out: Zone of Growth Inhibition
Protocol: as §1, §2, §3

S. Aureus SG511 = assay: Agar diffusion assay (modified Kirby-Bauer); details: 2 mM solution, 50 μL in 9.0 mm well, P unclear, V very unclear zone, * slightly misshapen zone; for zone of inhibition at 2000 µM: Staphylococcus aureus, read-out: Zone of Growth Inhibition
Protocol: as §1, §2, §3

[2] = system: panel of Gram-positive and Gram-negative bacteria; assay: MIC determination; details: same panel of Gram-positive and Gram-negative bacteria, all values
P. Aeruginosa K799/61 = assay: Agar diffusion assay (modified Kirby-Bauer); details: Pseudomonas aeruginosa, read-out: Zone of Growth Inhibition
Protocol: as §1, §2, §3

[3] = M. Luteus ATCC 10240, 2 mM solution, 50 μL in 9.0 mm well, P unclear, V very unclear zone, * slightly misshapen zone

COC(=O)CSCC1C(NC(=O)Cc2ccccc2)C(=O)N1S(=O)(=O)[O-].[K+] (racemic) [Compound 29] was tested, and the antibacterial activity ([1]; agar diffusion, overall) was “did not show any activity”.

In the case of CC(C)(ON=C(C(=O)NC1C(=O)N(S(=O)(=O)[O-])C1CSCCN)c1cnc(N)s1)C(=O)O.[K+] (racemic) [Compound 48], the “Zone of Growth Inhibition” value (A. Baumannii ATCC 17961; 2 mM solution) is reported as 12P, the “Zone of Growth Inhibition” value (M. Luteus ATCC 10240; [3]) is reported as 26P and the antibacterial activity (M. Luteus ATCC 10240; on the Gram-positive M. luteus) is reported as “very interesting activity”. For the same molecule, the “Zone of Growth Inhibition” value (B. Subtilis ATCC 6633) was 0 mm, the “Zone of Growth Inhibition” value (M. Vaccae IMET 10670) was 0 mm and the “Zone of Growth Inhibition” value (E. Coli DC2; E. Coli DC2, 2 mM solution, 50 μL in 9.0 mm well, P unclear, V very unclear zone, * slightly misshapen zone) was 28 mm. The “Zone of Growth Inhibition” value (P. Aeruginosa K799/wt) was 18P, the “Zone of Growth Inhibition” value (E. Coli DC0) was 26 mm and the “Zone of Growth Inhibition” value (B. Dolosa AU 0018) was 15 mm. For the same molecule, the “Zone of Growth Inhibition” value (S. Aureus SG511) was 0 mm and the “antibacterial activity against Gram-negative bacteria” value ([1]; agar diffusion, Gram-negative bacteria) was “very interesting activity”.

Molecule CO/N=C(\C(=O)N[C@@H]1C(=O)N(S(=O)(=O)[O-])[C@H]1CSCCNC(=O)OC(C)(C)C)c1cnc(N)s1.[K+] [Compound 43] has an MIC [2] of over 50 µM, a zone of inhibition at 2000 µM (A. Baumannii ATCC 17961; Acinetobacter baumannii, ATCC17961, 2 mM solution, read-out: Zone of Growth Inhibition) of 0 mm and a zone of inhibition at 2000 µM (M. Luteus ATCC 10240; Micrococcus luteus, ATCC10240, M. Luteus ATCC 10240, 2 mM solution, 50 μL in 9.0 mm well, P unclear, V very unclear zone, * slightly misshapen zone, read-out: Zone of Growth Inhibition) of 0 mm. It also gave a zone of inhibition at 2000 µM (B. Subtilis ATCC 6633; Bacillus subtilis, ATCC6633, 2 mM solution, read-out: Zone of Growth Inhibition) of 18 mm, a zone of inhibition at 2000 µM (M. Vaccae IMET 10670) of 0 mm and a zone of inhibition at 2000 µM (E. Coli DC2; Escherichia coli, E. Coli DC2, 2 mM solution, 50 μL in 9.0 mm well, P unclear, V very unclear zone, * slightly misshapen zone, read-out: Zone of Growth Inhibition) of 29 mm. For the same molecule, the “Zone of Growth Inhibition” value (P. Aeruginosa K799/wt) was 0ppt, the zone of inhibition at 2000 µM (E. Coli DC0) was 0 mm and the zone of inhibition at 2000 µM (B. Dolosa AU 0018) was 0 mm. The zone of inhibition at 2000 µM (S. Aureus SG511) was 0 mm, the antibacterial activity ([1]; against B. subtilis and the permeability mutant forms of P. aeruginosa and E. coli) was “moderate activity” and the antibacterial activity ([1]; corresponding wild strains of P. aeruginosa and E. coli) was “inactivity”.

With CO/N=C(\C(=O)N[C@@H]1C(=O)N(S(=O)(=O)[O-])[C@H]1CSCCN)c1cnc(N)s1.[K+] [Compound 44] the MIC [2] was over 50 µM, the “Zone of Growth Inhibition” value (M. Luteus ATCC 10240; [3]) was 14 s and the “Zone of Growth Inhibition” value (B. Subtilis ATCC 6633) was 16V. The zone of inhibition at 2000 µM (M. Vaccae IMET 10670) was 0 mm, the antibacterial activity (E. Coli DC2; against E. coli DC2, called wild type in the text) was “active” and the zone of inhibition at 2000 µM (P. Aeruginosa K799/wt; Pseudomonas aeruginosa, read-out: Zone of Growth Inhibition) was 0 mm. It also gave a zone of inhibition at 2000 µM (E. Coli DC0) of 23 mm, a zone of inhibition at 2000 µM (B. Dolosa AU 0018) of 0 mm and a zone of inhibition at 2000 µM (S. Aureus SG511) of 0 mm. For the same molecule, the zone of inhibition at 2000 µM (P. Aeruginosa K799/61) was 14 mm and the antibacterial activity ([1]; against B. subtilis, M. luteus, A. baumannii and the permeability mutant strains of P. aeruginosa and E. coli) was “moderately active”.
